Source: patent US20240043531A1, “ANTI-CD47 MONOCLONAL ANTIBODY AND USE THEREOF” (Akeso Biopharma, Inc., priority 2021, published 2024)
One block for each molecule: values may come before it.

Experiments:
[1] = test system: acute myelocytic leukemia (AML) HL-60 cells; experiment: ADCP: phagocytosis of HL-60 cells by HPMMs, combination with azacitidine; assay type: cell-based, human; settings: HPMMs effector, HL-60 target cells treated with azacitidine 3 μM or 1 μM for 24 h; antibodies 10 μg/mL and 1 μg/mL; FIG. 2
From the text: (§1) Materials: Azacitidine (purchased from Baxter Oncology GmbH); Hu5F9-G4 (supplied by Akeso Biopharma, Inc.); Raji cells (Chinese Academy of Sciences Shanghai Branch); HL-60 cells (ATCC); RPMI 1640 (Gibco, Cat. No: 22400-105); pancreatin (0.25% Typsin-EDTA (1×)) (Gibco, Cat. No: 25200072); fetal bovine serum (FBS; Excell bio, Cat. No: FSP500); fluorescent dye […] diacetatesuccinimidyl ester (CFSE; Biolegend, Cat. No: 423801); recombinant human macrophage colony-stimulating factor (human M-CSF; PeproTech, Cat. No: 300-25); APC anti-human CD11c antibody (Biolegend, Cat. No: 301614); isotype control (human IgG4; supplied by Akeso Biopharma, Inc.); rituximab (Roche); BSA (Sigma, Cat. No: V900933-1KG); Ficoll paque plus (GE, Cat. No: 17-1440-02). Human peripheral monocyte-derived macrophages (HPMMs) were prepared by inducing PBMCs. Frozen PBMCs were conventionally thawed and incubated in an incubator overnight. […]
Procedures: HL-60 cells were conventionally collected and plated in a 6-well plate at 4×10^5 cells/2 mL of 1640 complete medium per well. […] The next day, the treated and blank HL-60 cells were collected, centrifuged at 170×g for 5 min, resuspended and counted. Then the cells were analyzed for viability and washed once with PBS. […]

[2] = test system: human lung adenocarcinoma A549 cells; experiment: Immune cell activation: PBMCs with Raji-PDL1 and A549 cells, cytokine ELISA; assay type: cell-based; settings: SEB-activated PBMCs + Raji-PDL1 + A549 cells, 3 days; FIG. 4
[3] = test system: human ovarian cancer SK-OV-3 cells; experiment: Immune cell activation: PBMCs with Raji-PDL1 and SK-OV-3 cells, cytokine ELISA; assay type: cell-based; settings: SEB-activated PBMCs + Raji-PDL1 + SK-OV-3 cells, 3 days; FIG. 5
[4] = test system: human prostate cancer LNCAP cells; experiment: Immune cell activation: PBMCs with Raji-PDL1 and LNCAP cells, cytokine ELISA; assay type: cell-based; settings: SEB-activated PBMCs + Raji-PDL1 + LNCAP cells, 3 days; FIG. 6
[5] = test system: Burkitt's lymphoma Raji cells; experiment: ADCP: phagocytosis of Raji cells by HPMMs, combination with rituximab; assay type: cell-based, human; settings: HPMMs effector, Raji target cells, 37° C. 2 h, flow cytometry; FIG. 1
From the text: as §1, with “overnight. The next day, PBMCs were collected, centrifuged at 170×g for 5 min, resuspended in a 1640 medium containing 2% FBS, and incubated in an incubator for 2 h.” for “overnight.”
Procedures: Raji cells in the logarithmic phase were conventionally collected, centrifuged at 170×g for 5 min, resuspended and then washed once with PBS. […] 200 μL of 1% PBSA was added to each tube for resuspension, and the cells were detected on an FACS Calibur flow cytometer. […]

[6] = target: T1, CD47 IgV TEV-His (human CD47 mature peptide of positions 19-141 of NP_942088.1, TEV, his tag fusion protein) (human, UniProt Q08722 19-141); experiment: indirect ELISA screening with CD47 IgV TEV-His as antigen
T1 construct: range 19-141; Synthesized by Akeso Biopharma; not shown: his tag
From the text: Spleen cells of immunized mice were fused with myeloma cells of the mice to prepare hybridoma cells.

[7] = target: T2, CD47 IgV TEV-His (Homo sapiens, UniProt Q08722); experiment: Indirect ELISA screening for antibodies specifically binding CD47; settings: monoclonal antibody secreted by hybridoma LT012
T2 construct: human CD47 mature peptide of positions 19-141 of GenbankID: NP 942088.1; His tag (C); host or cells: mammalian cell expression system (said in general terms)
From the text: (§2) The antigen used for preparing the anti-CD47 antibody with the hybridoma cell line 6F7 was CD47 IgV TEV-His (including human CD47 mature peptide of positions 19-141 of GenbankID: NP 942088.1 and TEV (amino acid sequence: ENLYFQG, SEQ ID NO: 74)-his tag fusion protein, synthesized by Akeso Biopharma, Inc.) and 3T3-CD47 cells (NIH/3T3, manufacturer: ATCC, Cat. No: CRL-1658; the human CD47 mature peptide was transfected into the cells on the basis of NIH/3T3 to construct a cell line stably expressing 3T3-CD47). Spleen cells of immunized mice were fused with myeloma cells of the mice to prepare hybridoma cells. […] The hybridoma cells obtained by ELISA screening were screened by competitive ELISA to obtain a hybridoma cell line capable of secreting a monoclonal antibody capable of competing for binding to CD47 IgV TEV-His with the receptor human SIRPαECD-hFc-Biotin (SIRPαECD refers to the extracellular region of SIRPα, positions 31-373 of protein GenBank ACCESSION No. NP_542970.1; hFc refers to a human IgG Fc purification label, specifically to Ig gamma-1 chain C region, positions 114-330 of GenbankID: P01857), which was then subjected to dilution cloning to obtain a stable hybridoma cell line. The hybridoma cell line was designated hybridoma cell line LT012, and the monoclonal antibody secreted by the cell line was designated 6F7.

[8] = target: T3, CD47 IgV TEV-His / human SIRPαECD-hFc-Biotin (Homo sapiens, UniProt Q08722); experiment: Competitive ELISA against receptor SIRPα ECD-hFc-Biotin for binding to CD47
T3 construct: human CD47 mature peptide of positions 19-141 of GenbankID: NP 942088.1; His tag (C); host or cells: mammalian cell expression system (said in general terms, for CD47 only)
From the text: as §2

Molecule: Nc1ncn([C@@H]2O[C@H](CO)[C@@H](O)[C@H]2O)c(=O)n1 [azacitidine]
- phagocytic index (ADCP) [1]: significantly higher than those of the blank control and the isotype control (human IgG4)

Molecule: penpulimab: anti-PD-1 antibody; heavy chain SEQ ID NO: 82, light chain SEQ ID NO: 84 [reference compound]
- secretion of IFN-γ by PBMC cells [2]: can significantly stimulate the secretion of IFN-γ
- secretion of IL-2 by PBMC cells [3]: can significantly stimulate the secretion of IL-2
- secretion of IL-2 by PBMC cells [4]: can significantly stimulate the secretion of IL-2

Molecule: rituximab: anti-human CD20 antibody (Roche) [reference compound]
- phagocytic index (ADCP) [5]: significantly higher than those of the blank control and the isotype control (human IgG4)

- binding result [6]: binds
B1: anti-CD47 monoclonal antibody 6F7 (secreted by hybridoma cell line LT012) (antibody, V domains shown)
VH: QVQLQQPGAELVRPGASVKLSCKASGYTFTSYWMNWVKQRPGQGLEWIGMIDPSDSETHNNQMFKDKATLTVDKSSNTAYMHLSSLTSEDSAVYHCARLYRWYFDVWGAGTTVTVSS
VL: NIVMTQSPKSMSMSLGERVTLSCKASEIVGTYVSWFQQKPHQSPKLLIYGASNRYTGVPDRFTGSGSATDFTLTISNVQAEDLADYHCGQSYNFPYTFGGGTKLEIK
notes: Murine hybridoma antibody; also called CD47-6F7; LT012 antibody

- specific binding to CD47 [7]: capable of specifically binding to CD47
B2: 6F7: murine anti-CD47 monoclonal antibody secreted by hybridoma LT012; VH SEQ ID NO: 2, VL SEQ ID NO: 4 (antibody, V domains shown)
VH: B1 VH
VL: B1 VL
modifications: Synthetic artificial sequence-Amino acid sequence of the heavy chain variable region of 6F7; Synthetic artificial sequence-Amino acid sequence of the variable region of the light chain of 6F7
- competition with SIRPα ECD-hFc-Biotin for binding to CD47 [8]: can compete with the receptor SIRPα ECD-hFc-Biotin for binding to CD47
